Laboratory results from ChEMBL document CHEMBL5724914, “Linking interpersonal differences in gut microbiota composition and drug biotransformation activity” (2024).

Experiment: (§1) The drug is tested on Z-019 corresponding to rat gut metagenome with ENA study accession number: PRJEB37062 and ENA sample accession number: ERS12561818 for biotransformation under anaerobic condition. The drug concentrations were measured over 9 timepoints collected between 0 and 24 hours of incubation by liquid-chromatography-coupled mass spectrometry (LC–MS)
Conditions: 2 µM
Further: call rule not given here.

Row | Bacterial Biotransformation | SMILES
1 | Compound NOT metabolized | Cc1nc(-c2ccc(OCC(C)C)c(C#N)c2)sc1C(=O)O [FEBUXOSTAT]
2 | Compound NOT metabolized | O=C(Nc1ccccc1)OCC(CN1CCCCC1)OC(=O)Nc1ccccc1 (stereo not given) [DIPERODON]

Experiment: as §1, with “on Z-017” for “on Z-019”, “to mouse” for “to rat”, “number: ERS12561816” for “number: ERS12561818”
Conditions: 2 µM

Row | Bacterial Biotransformation | SMILES
3 | Compound NOT metabolized | Cc1nc(-c2ccc(OCC(C)C)c(C#N)c2)sc1C(=O)O [FEBUXOSTAT]
4 | Compound NOT metabolized | O=C(Nc1ccccc1)OCC(CN1CCCCC1)OC(=O)Nc1ccccc1 (stereo not given) [DIPERODON]

Experiment: as §1, with “on Z-016” for “on Z-019”, “to mouse” for “to rat”, “number: ERS12561815” for “number: ERS12561818”
Conditions: 2 µM

Row | Bacterial Biotransformation | SMILES
5 | Compound metabolized | Cc1nc(-c2ccc(OCC(C)C)c(C#N)c2)sc1C(=O)O [FEBUXOSTAT]
6 | Compound NOT metabolized | O=C(Nc1ccccc1)OCC(CN1CCCCC1)OC(=O)Nc1ccccc1 (stereo not given) [DIPERODON]

Experiment: as §1, with “Z-014” for “Z-019”, “ERS12561814” for “ERS12561818”
Conditions: 2 µM

Row | Bacterial Biotransformation | SMILES
7 | Compound NOT metabolized | Cc1nc(-c2ccc(OCC(C)C)c(C#N)c2)sc1C(=O)O [FEBUXOSTAT]
8 | Compound NOT metabolized | O=C(Nc1ccccc1)OCC(CN1CCCCC1)OC(=O)Nc1ccccc1 (stereo not given) [DIPERODON]

Experiment: as §1, with “on Z-013” for “on Z-019”, “to rabbit” for “to rat”, “number: ERS12561813” for “number: ERS12561818”
Conditions: 2 µM

Row | Bacterial Biotransformation | SMILES
9 | Compound NOT metabolized | Cc1nc(-c2ccc(OCC(C)C)c(C#N)c2)sc1C(=O)O [FEBUXOSTAT]
10 | Compound NOT metabolized | O=C(Nc1ccccc1)OCC(CN1CCCCC1)OC(=O)Nc1ccccc1 (stereo not given) [DIPERODON]

Experiment: as §1, with “Z-008” for “Z-019”, “to” for “to rat gut”, “ERS12561808” for “ERS12561818”
Conditions: 2 µM

Row | Bacterial Biotransformation | SMILES
11 | Compound NOT metabolized | Cc1nc(-c2ccc(OCC(C)C)c(C#N)c2)sc1C(=O)O [FEBUXOSTAT]
12 | Compound NOT metabolized | O=C(Nc1ccccc1)OCC(CN1CCCCC1)OC(=O)Nc1ccccc1 (stereo not given) [DIPERODON]

Experiment: as §1, with “on WLS-310” for “on Z-019”, “to human” for “to rat”, “number: ERS12561785” for “number: ERS12561818”
Conditions: 2 µM

Row | Bacterial Biotransformation | SMILES
13 | Compound metabolized | Cc1nc(-c2ccc(OCC(C)C)c(C#N)c2)sc1C(=O)O [FEBUXOSTAT]
14 | Compound metabolized | O=C(Nc1ccccc1)OCC(CN1CCCCC1)OC(=O)Nc1ccccc1 (stereo not given) [DIPERODON]

Experiment: as §1, with “on WLS-220” for “on Z-019”, “to human” for “to rat”, “number: ERS12561769” for “number: ERS12561818”
Conditions: 2 µM

Row | Bacterial Biotransformation | SMILES
15 | Compound metabolized | Cc1nc(-c2ccc(OCC(C)C)c(C#N)c2)sc1C(=O)O [FEBUXOSTAT]
16 | Compound metabolized | O=C(Nc1ccccc1)OCC(CN1CCCCC1)OC(=O)Nc1ccccc1 (stereo not given) [DIPERODON]

Experiment: as §1, with “on WLS-086” for “on Z-019”, “to human” for “to rat”, “number: ERS12561752” for “number: ERS12561818”
Conditions: 2 µM

Row | Bacterial Biotransformation | SMILES
17 | Compound metabolized | Cc1nc(-c2ccc(OCC(C)C)c(C#N)c2)sc1C(=O)O [FEBUXOSTAT]
18 | Compound metabolized | O=C(Nc1ccccc1)OCC(CN1CCCCC1)OC(=O)Nc1ccccc1 (stereo not given) [DIPERODON]

Experiment: as §1, with “on WLS-073” for “on Z-019”, “to human” for “to rat”, “number: ERS12561749” for “number: ERS12561818”
Conditions: 2 µM

Row | Bacterial Biotransformation | SMILES
19 | Compound NOT metabolized | Cc1nc(-c2ccc(OCC(C)C)c(C#N)c2)sc1C(=O)O [FEBUXOSTAT]
20 | Compound NOT metabolized | O=C(Nc1ccccc1)OCC(CN1CCCCC1)OC(=O)Nc1ccccc1 (stereo not given) [DIPERODON]

Experiment: as §1, with “on WLS-038” for “on Z-019”, “to human” for “to rat”, “number: ERS12561745” for “number: ERS12561818”
Conditions: 2 µM

Row | Bacterial Biotransformation | SMILES
21 | Compound metabolized | Cc1nc(-c2ccc(OCC(C)C)c(C#N)c2)sc1C(=O)O [FEBUXOSTAT]
22 | Compound NOT metabolized | O=C(Nc1ccccc1)OCC(CN1CCCCC1)OC(=O)Nc1ccccc1 (stereo not given) [DIPERODON]

Experiment: as §1, with “on WLS-007” for “on Z-019”, “to human” for “to rat”, “number: ERS12561742” for “number: ERS12561818”
Conditions: 2 µM

Row | Bacterial Biotransformation | SMILES
23 | Compound NOT metabolized | Cc1nc(-c2ccc(OCC(C)C)c(C#N)c2)sc1C(=O)O [FEBUXOSTAT]
24 | Compound NOT metabolized | O=C(Nc1ccccc1)OCC(CN1CCCCC1)OC(=O)Nc1ccccc1 (stereo not given) [DIPERODON]

Conditions: human gut metagenome, 24 h, 2 µM

Row | Bacterial Biotransformation | SMILES
25 | Compound metabolized | Cc1nc(-c2ccc(OCC(C)C)c(C#N)c2)sc1C(=O)O [FEBUXOSTAT]
26 | Compound NOT metabolized | O=C(Nc1ccccc1)OCC(CN1CCCCC1)OC(=O)Nc1ccccc1 (stereo not given) [DIPERODON]

Conditions: human gut metagenome, 24 h, 2 µM
Remark: another data set of the same source

Row | Bacterial Biotransformation | SMILES
27 | Compound metabolized | Cc1nc(-c2ccc(OCC(C)C)c(C#N)c2)sc1C(=O)O [FEBUXOSTAT]
28 | Compound metabolized | O=C(Nc1ccccc1)OCC(CN1CCCCC1)OC(=O)Nc1ccccc1 (stereo not given) [DIPERODON]

Conditions: human gut metagenome, 24 h, 2 µM
Remark: another data set of the same source

Row | Bacterial Biotransformation | SMILES
29 | Compound metabolized | Cc1nc(-c2ccc(OCC(C)C)c(C#N)c2)sc1C(=O)O [FEBUXOSTAT]
30 | Compound NOT metabolized | O=C(Nc1ccccc1)OCC(CN1CCCCC1)OC(=O)Nc1ccccc1 (stereo not given) [DIPERODON]

Conditions: human gut metagenome, 24 h, 2 µM
Remark: another data set of the same source

Row | Bacterial Biotransformation | SMILES
31 | Compound metabolized | Cc1nc(-c2ccc(OCC(C)C)c(C#N)c2)sc1C(=O)O [FEBUXOSTAT]
32 | Compound NOT metabolized | O=C(Nc1ccccc1)OCC(CN1CCCCC1)OC(=O)Nc1ccccc1 (stereo not given) [DIPERODON]

Conditions: human gut metagenome, 24 h, 2 µM
Remark: another data set of the same source

Row | Bacterial Biotransformation | SMILES
33 | Compound NOT metabolized | Cc1nc(-c2ccc(OCC(C)C)c(C#N)c2)sc1C(=O)O [FEBUXOSTAT]
34 | Compound NOT metabolized | O=C(Nc1ccccc1)OCC(CN1CCCCC1)OC(=O)Nc1ccccc1 (stereo not given) [DIPERODON]

Conditions: human gut metagenome, 24 h, 2 µM
Remark: another data set of the same source

Row | Bacterial Biotransformation | SMILES
35 | Compound metabolized | Cc1nc(-c2ccc(OCC(C)C)c(C#N)c2)sc1C(=O)O [FEBUXOSTAT]
36 | Compound NOT metabolized | O=C(Nc1ccccc1)OCC(CN1CCCCC1)OC(=O)Nc1ccccc1 (stereo not given) [DIPERODON]

Conditions: human gut metagenome, 24 h, 2 µM
Remark: another data set of the same source

Row | Bacterial Biotransformation | SMILES
37 | Compound metabolized | Cc1nc(-c2ccc(OCC(C)C)c(C#N)c2)sc1C(=O)O [FEBUXOSTAT]
38 | Compound metabolized | O=C(Nc1ccccc1)OCC(CN1CCCCC1)OC(=O)Nc1ccccc1 (stereo not given) [DIPERODON]

Conditions: human gut metagenome, 24 h, 2 µM
Remark: another data set of the same source

Row | Bacterial Biotransformation | SMILES
39 | Compound metabolized | Cc1nc(-c2ccc(OCC(C)C)c(C#N)c2)sc1C(=O)O [FEBUXOSTAT]
40 | Compound NOT metabolized | O=C(Nc1ccccc1)OCC(CN1CCCCC1)OC(=O)Nc1ccccc1 (stereo not given) [DIPERODON]
